Reference: patent publication US9260439B2, “Dihydropyrrolopyrimidine derivatives” (PFIZER INC., priority 2014, dated 2016)

Molecular target: truncated PI3Kα (p110α/iSH2 p85α) (Homo sapiens (Human), UniProt P42336)
Experiment: PI3KA_Act fluorescence polarization kinase assay (Ki)
Type: biochemical
Settings: 1 mM ATP
In short: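 Ki values result from fitting fluorescence polarization signals to the Morrison equation for tight-binding competitive inhibitors. The detector was GST-Grp1 PH domain with TAMRA-PIP3, read after a 30 min room-temperature reaction of 0.5 nM truncated PI3Kα and 30 μM PIP2 at pH 7.4 in HEPES/NaCl/MgCl2/DTT/CHAPS buffer. Compounds were tested as 12-point 3-fold dilutions from 3 μM.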

Sequence of truncated PI3Kα (p110α/iSH2 p85α) (P42336 whole entry, the tested form may be a part): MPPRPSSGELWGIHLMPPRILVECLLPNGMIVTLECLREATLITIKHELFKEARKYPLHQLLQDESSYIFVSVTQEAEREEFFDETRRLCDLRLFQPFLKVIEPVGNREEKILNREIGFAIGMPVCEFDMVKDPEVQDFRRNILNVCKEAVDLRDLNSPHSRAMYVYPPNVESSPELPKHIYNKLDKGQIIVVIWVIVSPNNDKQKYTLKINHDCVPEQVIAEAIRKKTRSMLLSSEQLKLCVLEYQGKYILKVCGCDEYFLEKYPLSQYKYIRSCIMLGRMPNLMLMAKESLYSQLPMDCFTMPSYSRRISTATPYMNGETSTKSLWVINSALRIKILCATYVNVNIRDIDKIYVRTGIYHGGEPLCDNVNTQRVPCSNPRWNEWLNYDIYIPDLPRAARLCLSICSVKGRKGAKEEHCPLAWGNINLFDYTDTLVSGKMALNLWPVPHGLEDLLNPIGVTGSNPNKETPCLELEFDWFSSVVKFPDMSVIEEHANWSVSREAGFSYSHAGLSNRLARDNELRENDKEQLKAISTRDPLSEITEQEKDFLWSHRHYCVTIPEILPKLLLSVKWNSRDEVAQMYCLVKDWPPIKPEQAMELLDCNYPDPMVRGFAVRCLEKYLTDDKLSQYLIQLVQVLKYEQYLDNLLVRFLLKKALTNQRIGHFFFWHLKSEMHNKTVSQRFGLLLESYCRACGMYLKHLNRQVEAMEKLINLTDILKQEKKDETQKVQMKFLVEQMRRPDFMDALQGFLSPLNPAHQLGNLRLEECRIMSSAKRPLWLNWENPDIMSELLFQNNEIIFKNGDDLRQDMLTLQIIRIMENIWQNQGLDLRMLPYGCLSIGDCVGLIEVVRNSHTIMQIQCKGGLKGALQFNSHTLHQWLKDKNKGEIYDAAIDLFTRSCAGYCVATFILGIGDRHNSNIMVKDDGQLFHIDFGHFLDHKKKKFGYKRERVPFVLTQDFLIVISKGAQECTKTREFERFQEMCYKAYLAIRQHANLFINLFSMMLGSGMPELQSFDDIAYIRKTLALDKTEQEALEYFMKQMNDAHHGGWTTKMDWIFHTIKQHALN

SMILES	PI3KA_Act Ki [nM]
CC(C)(C(N)=O)C(=O)N1CC[C@](C)(N2CCc3c(-c4cnc(N)nc4)nc(N4CCOCC4)nc32)C1 [Example 318, 3-{(3S)-3-[4-(2-aminopyrimidin-5-yl)-2-(morpholin-4-yl)-5,6-dihydro-7H-pyrrolo[2,3-d]pyrimidin-7-yl]-3-methylpyrrolidin-1-yl}-2,2-dimethyl-3-oxopropanamide]	0.076
CC(C)(C(=O)O)C(=O)N1CC[C@](C)(N2CCc3c(-c4cnc(N)nc4)nc(N4CCOCC4)nc32)C1 [Example 319, 3-{(3S)-3-[4-(2-aminopyrimidin-5-yl)-2-(morpholin-4-yl)-5,6-dihydro-7H-pyrrolo[2,3-d]pyrimidin-7-yl]-3-methylpyrrolidin-1-yl}-2,2-dimethyl-3-oxopropanoic acid]	2.266
CC(C(=O)O)C(=O)N1CC[C@](C)(N2CCc3c(-c4cnc(N)nc4)nc(N4CCOCC4)nc32)C1 (stereo partly drawn) [Example 320, 3-{(3S)-3-[4-(2-aminopyrimidin-5-yl)-2-(morpholin-4-yl)-5,6-dihydro-7H-pyrrolo[2,3-d]pyrimidin-7-yl]-3-methylpyrrolidin-1-yl}-2-methyl-3-oxopropanoic acid]	0.318
CCOC(=O)C(C)C(=O)N1CC[C@](C)(N2CCc3c(-c4cnc(N)nc4)nc(N4CCOCC4)nc32)C1 (stereo partly drawn) [Example 321, ethyl 3-{(3S)-3-[4-(2-aminopyrimidin-5-yl)-2-(morpholin-4-yl)-5,6-dihydro-7H-pyrrolo[2,3-d]pyrimidin-7-yl]-3-methylpyrrolidin-1-yl}-2-methyl-3-oxopropanoate]	0.042
CCOC(=O)C(C)(C)C(=O)N1CC[C@](C)(N2CCc3c(-c4cnc(N)nc4)nc(N4CCOCC4)nc32)C1 [Example 322, ethyl 3-{(3S)-3-[4-(2-aminopyrimidin-5-yl)-2-(morpholin-4-yl)-5,6-dihydro-7H-pyrrolo[2,3-d]pyrimidin-7-yl]-3-methylpyrrolidin-1-yl}-2,2-dimethyl-3-oxopropanoate]	<0.018
C[C@]1(N2CCc3c(-c4cnc(N)nc4)nc(N4CCOCC4)nc32)CCN(C(=O)CC2CC2)C1 [Example 323, 1-{(3S)-3-[4-(2-aminopyrimidin-5-yl)-2-(morpholin-4-yl)-5,6-dihydro-7H-pyrrolo[2,3-d]pyrimidin-7-yl]-3-methylpyrrolidin-1-yl}-2-cyclopropylethanone]	<0.018
C[C@@]1(N2CCc3c(-c4cnc(N)nc4)nc(N4CCOCC4)nc32)CCN(C(=O)CC2CC2)C1 [Example 324, 1-{(3R)-3-[4-(2-aminopyrimidin-5-yl)-2-(morpholin-4-yl)-5,6-dihydro-7H-pyrrolo[2,3-d]pyrimidin-7-yl]-3-methylpyrrolidin-1-yl}-2-cyclopropylethanone]	0.198
C[C@]1(N2CCc3c(-c4cnc(N)nc4)nc(N4CCOCC4)nc32)CCN(C(=O)CN2CCC2)C1 [Example 325, 1-{(3S)-3-[4-(2-aminopyrimidin-5-yl)-2-(morpholin-4-yl)-5,6-dihydro-7H-pyrrolo[2,3-d]pyrimidin-7-yl]-3-methylpyrrolidin-1-yl}-2-(azetidin-1-yl)ethanone]	0.058
C[C@]1(N2CCc3c(-c4cnc(N)nc4)nc(N4CCOCC4)nc32)CCN(C(=O)C2CC2)C1 [Example 328, {(3S)-3-[4-(2-aminopyrimidin-5-yl)-2-(morpholin-4-yl)-5,6-dihydro-7H-pyrrolo[2,3-d]pyrimidin-7-yl]-3-methylpyrrolidin-1-yl}(cyclopropyl) methanone]	0.024
CC1(C(=O)N2CC[C@](C)(N3CCc4c(-c5cnc(N)nc5)nc(N5CCOCC5)nc43)C2)CC1 [Example 329, {(3S)-3-[4-(2-aminopyrimidin-5-yl)-2-(morpholin-4-yl)-5,6-dihydro-7H-pyrrolo[2,3-d]pyrimidin-7-yl]-3-methylpyrrolidin-1-yl}(1-methylcyclopropyl) methanone]	<0.018
CC1(C(=O)N2CC[C@@](C)(N3CCc4c(-c5cnc(N)nc5)nc(N5CCOCC5)nc43)C2)CC1 [Example 330, {(3R)-3-[4-(2-aminopyrimidin-5-yl)-2-(morpholin-4-yl)-5,6-dihydro-7H-pyrrolo[2,3-d]pyrimidin-7-yl]-3-methylpyrrolidin-1-yl}(1-methylcyclopropyl) methanone]	0.152
C[C@]1(N2CCc3c(-c4cnc(N)nc4)nc(N4CCOCC4)nc32)CCN(C(=O)[C@H]2C[C@@H]2F)C1 [Example 332, {(3S)-3-[4-(2-aminopyrimidin-5-yl)-2-(morpholin-4-yl)-5,6-dihydro-7H-pyrrolo[2,3-d]pyrimidin-7-yl]-3-methylpyrrolidin-1-yl}[(1R,2S)-2-fluorocyclopropyl] methanone]	<0.018
C[C@]1(N2CCc3c(-c4cnc(N)nc4)nc(N4CCOCC4)nc32)CCN(C(=O)[C@@H]2C[C@H]2F)C1 [Example 333, {(3S)-3-[4-(2-aminopyrimidin-5-yl)-2-(morpholin-4-yl)-5,6-dihydro-7H-pyrrolo[2,3-d]pyrimidin-7-yl]-3-methylpyrrolidin-1-yl}[(1S,2R)-2-fluorocyclopropyl] methanone]	<0.018
C[C@]1(N2CCc3c(-c4cnc(N)nc4)nc(N4CCOCC4)nc32)CCN(C(=O)[C@@H]2C[C@@H]2F)C1 [Example 334, {(3S)-3-[4-(2-aminopyrimidin-5-yl)-2-(morpholin-4-yl)-5,6-dihydro-7H-pyrrolo[2,3-d]pyrimidin-7-yl]-3-methylpyrrolidin-1-yl}[(1S,2S)-2-fluorocyclopropyl] methanone]	0.021
C[C@]1(N2CCc3c(-c4cnc(N)nc4)nc(N4CCOCC4)nc32)CCN(C(=O)[C@H]2C[C@H]2F)C1 [Example 335, {(3S)-3-[4-(2-aminopyrimidin-5-yl)-2-(morpholin-4-yl)-5,6-dihydro-7H-pyrrolo[2,3-d]pyrimidin-7-yl]-3-methylpyrrolidin-1-yl}[(1R,2R)-2-fluorocyclopropyl] methanone]	<0.018
C[C@]1(N2CCc3c(-c4cnc(N)nc4)nc(N4CCOCC4)nc32)CCN(C(=O)[C@H]2CC2(F)F)C1 [Example 336, {(3S)-3-[4-(2-aminopyrimidin-5-yl)-2-(morpholin-4-yl)-5,6-dihydro-7H-pyrrolo[2,3-d]pyrimidin-7-yl]-3-methylpyrrolidin-1-yl}[(1R)-2,2-difluorocyclopropyl] methanone]	0.054
C[C@]1(N2CCc3c(-c4cnc(N)nc4)nc(N4CCOCC4)nc32)CCN(C(=O)[C@@H]2CC2(F)F)C1 [Example 337, {(3S)-3-[4-(2-aminopyrimidin-5-yl)-2-(morpholin-4-yl)-5,6-dihydro-7H-pyrrolo[2,3-d]pyrimidin-7-yl]-3-methylpyrrolidin-1-yl}[(1S)-2,2-difluorocyclopropyl] methanone]	<0.018
C[C@]1(N2CCc3c(-c4cnc(N)nc4)nc(N4CCOCC4)nc32)CCN(C(=O)C2(N)CC2)C1.Cl [Example 340, (1-aminocyclopropyl) {(3S)-3-[4-(2-aminopyrimidin-5-yl)-2-(morpholin-4-yl)-5,6-dihydro-7H-pyrrolo[2,3-d]pyrimidin-7-yl]-3-methylpyrrolidin-1-yl}methanone hydrochloride]	0.234
C[C@]1(N2CCc3c(-c4cnc(N)nc4)nc(N4CCOCC4)nc32)CCN(C(=O)C2CCC2)C1 [Example 341, {(3S)-3-[4-(2-aminopyrimidin-5-yl)-2-(morpholin-4-yl)-5,6-dihydro-7H-pyrrolo[2,3-d]pyrimidin-7-yl]-3-methylpyrrolidin-1-yl}(cyclobutyl)meth-anone]	<0.018
C[C@@]1(N2CCc3c(-c4cnc(N)nc4)nc(N4CCOCC4)nc32)CCN(C(=O)C2CCC2)C1 [Example 342, {(3R)-3-[4-(2-aminopyrimidin-5-yl)-2-(morpholin-4-yl)-5,6-dihydro-7H-pyrrolo[2,3-d]pyrimidin-7-yl]-3-methylpyrrolidin-1-yl}(cyclobutyl)meth-anone]	0.141
C[C@]1(N2CCc3c(-c4cnc(N)nc4)nc(N4CCOCC4)nc32)CCN(C(=O)C2(O)CCC2)C1 [Example 343, {(3S)-3-[4-(2-aminopyrimidin-5-yl)-2-(morpholin-4-yl)-5,6-dihydro-7H-pyrrolo[2,3-d]pyrimidin-7-yl]-3-methylpyrrolidin-1-yl}(1-hydroxycyclobutyl) methanone]	0.089
C[C@@]1(N2CCc3c(-c4cnc(N)nc4)nc(N4CCOCC4)nc32)CCN(C(=O)C2(O)CCC2)C1 [Example 344, {(3R)-3-[4-(2-aminopyrimidin-5-yl)-2-(morpholin-4-yl)-5,6-dihydro-7H-pyrrolo[2,3-d]pyrimidin-7-yl]-3-methylpyrrolidin-1-yl}(1-hydroxycyclobutyl) methanone]	0.098
C[C@]1(N2CCc3c(-c4cnc(N)nc4)nc(N4CCOCC4)nc32)CCN(C(=O)C2CC(O)C2)C1 (stereo partly drawn) [Example 345, {(3S)-3-[4-(2-aminopyrimidin-5-yl)-2-(morpholin-4-yl)-5,6-dihydro-7H-pyrrolo[2,3-d]pyrimidin-7-yl]-3-methylpyrrolidin-1-yl}(3-hydroxycyclobutyl) methanone]	0.028
C[C@]1(N2CCc3c(-c4cnc(N)nc4)nc(N4CCOCC4)nc32)CCN(C(=O)C2(N)CCC2)C1 [Example 346, (1-aminocyclobutyl) {(3S)-3-[4-(2-aminopyrimidin-5-yl)-2-(morpholin-4-yl)-5,6-dihydro-7H-pyrrolo[2,3-d]pyrimidin-7-yl]-3-methylpyrrolidin-1-yl}methanone]	0.125
C[C@]1(N2CCc3c(-c4cnc(N)nc4)nc(N4CCOCC4)nc32)CCN(C(=O)[C@@H]2CCN2)C1.Cl [Example 347, {(3S)-3-[4-(2-aminopyrimidin-5-yl)-2-(morpholin-4-yl)-5,6-dihydro-7H-pyrrolo[2,3-d]pyrimidin-7-yl]-3-methylpyrrolidin-1-yl}[(2S)-azetidin-2-yl]methanone hydrochloride]	0.075
